# Patent US4425356A, “Lankacidin derivatives used in swine husbandry” (Takeda Chemical Industries, Ltd., priority 1980, dated 1984)
# Read-outs that look alike come from different tables or passages of the source.
# Legend:
# [1] = system: Treponema hyodysenteriae; assay: in vitro antibacterial activity (MIC, agar dilution method), Test Examples 1-3; assay type: cell-based; conditions: Brachyspira hyodysenteriae, 48 h, 37° C., 2 days, anaerobic
# Description: Several agents were tested for in vitro antibacterial activity against Treponema hyodysenteriae, the pathogenic bacteria causing swine dysentery, by the method of testing drug sensitivity of Treponema hyodysenteriae (Kashiwazaki et al. Abstracts of Papers presented at the 82nd Meeting of the Japanese Society of Veterinary Science, page 101, 1976).
# (1) Strains: These strains belong to Treponema hyodysenteriae isolated
# from the bloody mucous faeces of dysenteric pigs in Japan.
# (2) Antimicrobial activity assay: Agar dilution method
# (3) Inoculum size: A loopful of bacterial suspension (10^6 CFU/ml)
# (4) Cultural conditions: GasPak anaerobic system (BBL), 37° C., 2
# Typical agents among compound (I) were tested for in vitro antibacterial activity by the same method as in Test Example 1.
# The experimental conditions are the same as in Test Example 1 (Table 1).
# Agents of compound (I) were tested for in vitro antibacterial activity by the same method as in Test Example 1.
# [2] = acute toxicity tests with mice; conditions: mouse, in vivo
# Description: The toxicity of compound (I) in animals is very low.
# [3] = system: Treponema hyodysenteriae; assay: efficacy in experimental infection in mice with swine dysentery, Test Example 4; assay type: in vivo; conditions: 5 mg/kg/day oral, day 1 to day 4; seven days after infection
# Description: Lankacidin A, lankacidin C, lankacidin C 8-acetate, lankacidin C 14-propionate, lankacidinol A and lankacidinol were tested for efficacy against swine dysentery in experimental infection in mice with swine dysentery.
# The similar experimental infection model of swine dysentery in mice as that described, for example, by Joens et al. in Infection and Immunity, 25, 757-760 (1979), American Journal of Veterinary Research, 41, 1225-1226 (1980) and Veterinary Record, 107, 527-529 (1980) was used. Thus, a field isolate of Treponema hyodysenteriae anaerobically cultivated on the 5% defibrinated horse blood added Trypticase soy agar (BBL) plate was mashed together with the culture medium and diluted two-fold with Trypticase soy broth (BBL). Mice were inoculated intragastrically with this infecting dilution. Each test agent was suspended in 5% gum arabic solution and forcibly administered orally from day 1 to day 4 following infection. Seven days after infection, the cecum was examined for lesions, and the cecum was mashed together with the contents and subjected to Treponema hyodysenteriae counting. Excellent efficacy was produced in each of the drug-administered groups.
# [4] = system: Treponema hyodysenteriae 78/A strain; assay: efficacy against swine dysentery under experimental infection conditions in pigs (drug in feed), Test Examples 5-7; assay type: in vivo, Landrace pigs
# Description: Lankacidin C was tested for efficacy against swine dysentery under experimental infection conditions. Thus, twelve 6-week-old Landrace pigs (4 per group) were used. The test drug was admixed to a concentration of 100 ppm with the domestically formulated starter feed for young pigs without antibiotics. The animals were provided with the ration ad libitum. Infection of the pigs was effected by direct intragastrical administration to the SPF pigs of an inoculum prepared by preliminary anaerobic cultivation of the Treponema hyodysenteriae 78/A strain on a 5% horse blood added agar plate, mashing together with the culture medium and admixing with 5% mucin added phosphate buffer. Colonic contents and mucosa were collected from pigs which developed typical signs of swine dysentery, and diluted two-fold with 5% mucin added phosphate buffer. The dilution was used as the final inoculum, and 100 ml of the dilution was directly injected into the stomach of test pigs at the age of 7 weeks (fasted for 24 hours before infection). The pigs were fed for 21 days following infection.
# The data are each the mean value per head for the 21day period from
# infection to autopsy. Different alphabetic letters on the same line
# indicate that there is a significant difference between the data to which
# they are attached (P <0.05).
# Lankacidin C was tested at concentrations in feed of 100 ppm and lower by the same method as in Test Example 5, with carbadox, a commonly used anti-swine-dysentery agent, for comparison.
# The anti-swine-dysentery effects of 10 ppm each of lankacidin A and lankacidin C 14-propionate were examined by the procedure of Test Example 6.
# [5] = system: Treponema hyodysenteriae 78/A strain; assay: therapeutic administration in pigs showing clinical signs of swine dysentery, Test Examples 8-9; assay type: in vivo; conditions: for Condition of feces: Table 9, individual pig
# Description: This test was conducted under the conditions of so-called therapeutic administration. […] The method of infection was the same as in Test Example 5. […] Simultaneously with showing of the signs, the pigs were provided with a feed containing 50 ppm of lankacidin C. […] After 2 days, the viable count for the pathogen in feces was below the detection limit (10^2 CFU/g).
# The condition of feces was rated at one of the following four classes:
# .circle. normal; loose; diarrheal; .circleincircle. mucous and bloody
# count is below the detection limit (10^2 CFU/g).
# The symbol * indicates those days on which the feed containing 50 ppm of
# lankacidin C was given.
# Lankacidins were tested for therapeutic effects in swine dysentery under therapeutic conditions in the same manner as in Test Example 8. The effects were judged based on the condition of feces.
# The condition of feces was rated at one of the following four classes;
# The symbol * indicates the days on which the feed containing 50 ppm of th
# [6] = strain 78/A, read-out: Minimum Inhibitory Concentration
# [7] = strain CD1 (CD-1), read-out: Minimum Inhibitory Concentration
# [8] = strain DJ70P1, read-out: Minimum Inhibitory Concentration
# [9] = strain MK-2, read-out: Minimum Inhibitory Concentration
# [10] = 10 ppm in feed, 21-day test period
# [11] = 10 ppm in feed, 21 day period, mean per head
smiles,measurement,setting,value
"CCC(=O)OC1C=CC(C)=CCC(O)C=CC(C)=CC(NC(=O)C(C)=O)C2(C)C(=O)OC(C1)C(C)C2=O (stereo not drawn) [Lankacidin C 14-propionate, lankacidin C 14-propionate]",MIC,[1]; [6],1.56 µg/mL
same,MIC,[1]; [7],3.13 µg/mL
same,MIC,[1]; [8],3.13 µg/mL
same,MIC,[1]; [9],1.56 µg/mL
same,LD50,"[2]; ip, intraperitoneal, read-out: intraperitoneal LD50",> 10000 mg/kg
same,LD50,"[2]; oral, read-out: oral LD50",> 10000 mg/kg
same,Number of mice from which the pathogen was detected/number of mice tested,[3],1/5
same,Number of mice with cecal lesions/number of mice tested,[3],0/5
same,"Number of pigs from which the pathogen was detected, in colonic mucosa",[4]; 10 ppm in feed,0
same,"Number of pigs from which the pathogen was detected, in feces",[4]; 10 ppm in feed,0
same,Number of pigs showing colonic lesions,[4]; 10 ppm in feed,0
same,Number of days on which diarrhea was observed,[4]; [10],0 days
same,Number of days on which mucous bloody stool was observed,[4]; [10],0 days
same,Number of pigs showing signs of infection/number of pigs used,[4]; [10],0/4
same,Body weight gain,[4]; [11],562 grams/day
same,Feed conversion,[4]; [11],1.81
same,Feed intake,[4]; [11],21.1 kg
same,Body weight at the time of completion of test,"[4]; 10 ppm in feed, mean per head",23.1 kg
same,effect against swine dysentery (in words),"[4]; pig, in vivo",distinctly effective against swine dysentery
same,therapeutic effect in swine dysentery (in words),[5]; 50 ppm in feed,therapeutically effective
same,Condition of feces,"[5]; 50 ppm in feed days 0-6, day 7",.circle.
same,Condition of feces,"[5]; 50 ppm in feed days 0-6, day 8",.circle.
same,Condition of feces,"[5]; 50 ppm in feed days 0-6, day 9",.circle.
same,Condition of feces,"[5]; 50 ppm in feed days 0-6, day 10",.circle.
same,Condition of feces,"[5]; 50 ppm in feed days 0-6, day 11",.circle.
same,Condition of feces,"[5]; 50 ppm in feed days 0-6, day 12",.circle.
same,Condition of feces,"[5]; 50 ppm in feed days 0-6, day 13",.circle.
same,Condition of feces,"[5]; 50 ppm in feed days 0-6, day 14",.circle.
same,Condition of feces,"[5]; 50 ppm in feed days 0-6, day 15",.circle.
same,Condition of feces,"[5]; 50 ppm in feed days 0-6, day 16",.circle.
same,Condition of feces,"[5]; 50 ppm in feed days 0-6, day 17",.circle.
same,Condition of feces,"[5]; 50 ppm in feed days 0-6, day 18",.circle.
same,Condition of feces,"[5]; 50 ppm in feed days 0-6, day 19",.circle.
same,Condition of feces,"[5]; 50 ppm in feed days 0-6, day 20",.circle.
same,Condition of feces,"[5]; 50 ppm in feed days 0-6, day 21",.circle.
same,Condition of feces,"[5]; 50 ppm in feed, day 0 after manifestation of signs",.circleincircle.
same,Condition of feces,"[5]; 50 ppm in feed, day 1",.circle.
same,Condition of feces,"[5]; 50 ppm in feed, day 2",.circle.
same,Condition of feces,"[5]; 50 ppm in feed, day 3",.circle.
same,Condition of feces,"[5]; 50 ppm in feed, day 4",.circle.
same,Condition of feces,"[5]; 50 ppm in feed, day 5",.circle.
same,Condition of feces,"[5]; 50 ppm in feed, day 6",.circle.
"CC1=CCC(O)C=CC(C)=CC(NC(=O)C(C)O)C2(C)C(=O)OC(CC(O)C=C1)C(C)C2=O (stereo not drawn) [Lankacidinol, lankacidinol]",MIC,"[1]; read-out: Minimum Inhibitory Concentration, strain 78/A",12.5 µg/mL
same,MIC,"[1]; read-out: Minimum Inhibitory Concentration, strain CD1 (CD-1)",12.5 µg/mL
same,MIC,"[1]; read-out: Minimum Inhibitory Concentration, strain DJ70P1",25 µg/mL
same,MIC,"[1]; read-out: Minimum Inhibitory Concentration, strain MK-2",25 µg/mL
same,Number of mice from which the pathogen was detected/number of mice tested,[3],0/5
same,Number of mice with cecal lesions/number of mice tested,[3],0/5
"CC(=O)OC1C=CC(C)=CC(NC(=O)C(C)=O)C2(C)C(=O)OC(CC(O)C=CC(C)=CC1)C(C)C2=O (stereo not drawn) [Lankacidin C 8-acetate, lankacidin C 8-acetate]",MIC,[1]; [6],0.39 µg/mL
same,MIC,[1]; [7],0.39 µg/mL
same,MIC,[1]; [8],0.78 µg/mL
same,MIC,[1]; [9],0.39 µg/mL
same,Number of mice from which the pathogen was detected/number of mice tested,[3],0/5
same,Number of mice with cecal lesions/number of mice tested,[3],0/5
"CC(=O)OC1C=CC(C)=CCC(O)C=CC(C)=CC(NC(=O)C(C)O)C2(C)C(=O)OC(C1)C(C)C2=O (stereo not drawn) [Lankacidinol A, lankacidinol A]",MIC,[1]; [6],12.5 µg/mL
same,MIC,[1]; [7],25 µg/mL
same,MIC,[1]; [8],25 µg/mL
same,MIC,[1]; [9],25 µg/mL
same,Number of mice from which the pathogen was detected/number of mice tested,[3],1/5
same,Number of mice with cecal lesions/number of mice tested,[3],0/5
